Patent US10253007B2, “Taxanes compounds, preparation method therefor, and uses thereof” (Jiangsu Tasly Diyi Pharmaceutical Co., Ltd., priority 2013, dated 2019)
Read-outs that look alike come from different tables or passages of the source.

Columns and labels:
[1] = Caco-2 cell monolayer membrane transport assay; conditions: human; for Papp A→B: Caco-2, Papp A-B; for recovery: Caco-2, Recovery rate in mass
Excerpt: (§3) Caco-2 Cell Monolayer Membrane Transport Assay
(§4) Human-derived colorectal adenocarcinoma cell line Caco-2 cell monolayer model was used to study the bidirectional transport of the target compounds from the apical (AP) side to the basolateral (BL) side and from BL side to AP side. HPLC was used for quantitative analysis to calculate transport parameters, apparent permeability coefficient (Papp) and the efflux ratio.

Caco-2 cell monolayer = Caco-2 cell monolayer membrane transport assay; conditions: Caco-2 cell line (21 days); for efflux ratio: Papp B-A/Papp A-B; for Papp A-B / Papp B-A: bidirectional transport, Table 5
Excerpt: as §3, §4

A375 melanoma = test: MTT assay, proliferation inhibition; assay type: cell-based; conditions: Homo sapiens, A-375, read-out: Proliferation inhibition rate
Excerpt: (§1) 1. Cytotoxicity Assay Using Human Tumor Cell Lines
(§2) Paclitaxel was used as the positive drug.

MCF-7 breast cancer = test: MTT assay, proliferation inhibition; assay type: cell-based; conditions: Homo sapiens, MCF7, read-out: Proliferation inhibition rate
Excerpt: as §1, §2

K562 leukemia = test: MTT assay, proliferation inhibition; assay type: cell-based; conditions: Homo sapiens, read-out: Proliferation inhibition rate
Excerpt: as §1, §2

LNCaP prostate cancer = test: MTT assay, proliferation inhibition; assay type: cell-based; conditions: Homo sapiens, read-out: Proliferation inhibition rate
Excerpt: as §1, §2

[2] = MTT assay, proliferation inhibition; assay type: cell-based; conditions: Homo sapiens, LN-18 gastric cancer, read-out: Proliferation inhibition rate
Excerpt: as §1, §2

[3] = tested on: A549 non-small cell lung cancer; test: MTT assay, proliferation inhibition; assay type: cell-based; conditions: Homo sapiens, read-out: Proliferation inhibition rate
Excerpt: as §1, §2

A2780 ovarian cancer = test: MTT assay, proliferation inhibition; assay type: cell-based; conditions: Homo sapiens, read-out: Proliferation inhibition rate
Excerpt: as §1, §2

HL60 leukemia = test: MTT assay, proliferation inhibition; assay type: cell-based; conditions: Homo sapiens, HL-60, read-out: Proliferation inhibition rate
Excerpt: as §1, §2

HeLa cervical cancer = test: MTT assay, proliferation inhibition; assay type: cell-based; conditions: Homo sapiens, read-out: Proliferation inhibition rate
Excerpt: as §1, §2

HCT 116 colon cancer = test: MTT assay, proliferation inhibition; assay type: cell-based; conditions: Homo sapiens, read-out: Proliferation inhibition rate
Excerpt: as §1, §2

[4] = tested on: NCI-H460 non-small cell lung cancer; test: MTT assay, proliferation inhibition; assay type: cell-based; conditions: Homo sapiens, read-out: Proliferation inhibition rate
Excerpt: as §1, §2

DU145 prostate cancer = test: MTT assay, proliferation inhibition; assay type: cell-based; conditions: Homo sapiens, DU-145, read-out: Proliferation inhibition rate
Excerpt: as §1, §2

MDA-MB-436 breast cancer = test: MTT assay, proliferation inhibition; assay type: cell-based; conditions: Homo sapiens, read-out: Proliferation inhibition rate
Excerpt: as §1, §2

BGC-823 gastric cancer = test: MTT assay, proliferation inhibition; assay type: cell-based; conditions: Homo sapiens, read-out: Proliferation inhibition rate
Excerpt: as §1, §2

B16 melanoma = test: MTT assay, proliferation inhibition; assay type: cell-based; conditions: read-out: Proliferation inhibition rate
Excerpt: as §1, §2

HT29 colon cancer = test: MTT assay, proliferation inhibition; assay type: cell-based; conditions: Homo sapiens, HT-29, read-out: Proliferation inhibition rate
Excerpt: as §1, §2

[5] = tested on: breast cancer cell line MCF-7; test: IC50 values on breast cancer cell line MCF-7; assay type: cell-based; conditions: Homo sapiens
Excerpt: From the activity evaluation data of the above-mentioned preliminary screen, it can be seen that the series of taxanes derivatives synthesized in the present invention have activity (although the activity of PCMI-43 is weakened). Afterward, most of the compounds are picked up from these derivatives to examine their IC50 values on breast cancer cell line MCF-7. Paclitaxel is used as the positive control drug. Experiments for each compound were independently repeated for three times and multiple holes were used in each experiment. The exposure time of drugs was 72 hours.

[6] = Mean, Caco-2, A-B, mean of two samples
[7] = Sample-01, Caco-2, A-B, Sample-01
[8] = Sample-02, Caco-2, A-B, Sample-02
[9] = MCF7, 72 h, read-out: MCF-7(IC50, nM)
[10] = Caco-2 cell line (21 days), bidirectional transport, Table 5
[11] = MCF7, MCF-7, exposure 72 hours, mean±SD of three independent experiments, read-out: MCF-7(IC50)

| Structure (SMILES) | Papp A→B [1, 7] [×10⁻⁶ cm/s] | Papp A→B [1, 8] [×10⁻⁶ cm/s] | recovery [1, 6] [%] | recovery [1, 7] [%] | recovery [1, 8] [%] | inhibition at 1 µM (MCF-7 breast cancer) [%] | inhibition at 1 µM (K562 leukemia) [%] | inhibition at 1 µM (LNCaP prostate cancer) [%] | inhibition at 1 µM [2] [%] | inhibition at 1 µM [3] [%] | inhibition at 1 µM (A2780 ovarian cancer) [%] | inhibition at 1 µM (HL60 leukemia) [%] | inhibition at 1 µM (HeLa cervical cancer) [%] | inhibition at 1 µM (HCT 116 colon cancer) [%] | inhibition at 1 µM [4] [%] | inhibition at 1 µM (DU145 prostate cancer) [%] | inhibition at 1 µM (MDA-MB-436 breast cancer) [%] | inhibition at 1 µM (BGC-823 gastric cancer) [%] | inhibition at 1 µM (B16 melanoma) [%] | inhibition at 1 µM (HT29 colon cancer) [%] | other results |
| --- | --- | --- | --- | --- | --- | --- | --- | --- | --- | --- | --- | --- | --- | --- | --- | --- | --- | --- | --- | --- | --- |
| CO[C@H]1C[C@H]2OC[C@@]2(OC(C)=O)[C@H]2[C@H](OC(=O)c3ccccc3)[C@]3(O)C[C@H](OC(=O)[C@H](O)[C@@H](NC(=O)OC(C)(C)C)c4ccccc4)C(C)=C([C@@H](OC(=O)N(C)C)C(=O)[C@]12C)C3(C)C [PCMI-22] | 9 | 8.38 | 89.4 | 92.4 | 86.4 | 85.7 | 92.2 | 80.9 | 95.5 | 69.9 | 96.3 | 97.5 | 102 | 81.1 | 86.5 | 87.1 | 81.1 | 92 | 74.7 | 87.9 | Papp A→B [1, 6]: 8.69 ×10⁻⁶ cm/s; efflux ratio (Caco-2 cell monolayer): 4.08; Papp A-B (Caco-2 cell monolayer): 8.11 10^−6 cm/s; Papp B-A (Caco-2 cell monolayer): 33.11 10^−6 cm/s; inhibition at 1 µM (A375 melanoma): 87.7%; IC50 [5, 9]: 1.58 ± 0.04 nM |
| CO[C@H]1C[C@H]2OC[C@@]2(OC(C)=O)[C@H]2[C@H](OC(=O)c3ccccc3)[C@]3(O)C[C@H](OC(=O)[C@H](O)[C@H](CC(C)C)NC(=O)OC(C)(C)C)C(C)=C([C@@H](OC(=O)N(C)C)C(=O)[C@]12C)C3(C)C [PCMI-25] | 6.41 | 9.92 | 71.2 | 63.9 | 78.5 | 89.8 | 90.9 | 80.4 | 92.5 | 69.5 | 94.8 | 97.7 | 101 | 78.3 | 80.7 | 82.9 | 78.4 | 90.2 | 71.8 | 87.3 | Papp A→B [1, 10]: 8.25 ×10⁻⁶ cm/s; Papp B-A (Caco-2 cell monolayer): 32.58 10^−6 cm/s; inhibition at 1 µM (A375 melanoma): 89%; IC50 [5, 9]: 1.7 ± 0.08 nM |
| COC(=O)O[C@H]1C(=O)[C@]2(C)[C@@H](OC)C[C@H]3OC[C@@]3(OC(C)=O)[C@H]2[C@H](OC(=O)c2ccccc2)[C@]2(O)C[C@H](OC(=O)[C@H](O)[C@@H](NC(=O)OC(C)(C)C)c3ccccc3)C(C)=C1C2(C)C [PCMI-26] | 8.45 | 9.06 | 81.4 | 80.9 | 82 | 95.5 | 91.4 | 79.8 | 89 | 66.2 | 95.8 | 96.8 | 101 | 81.1 | 86.4 | 86.2 | 76.3 | 89.2 | 69.7 | 88.8 | Papp A→B [1, 6]: 8.75 ×10⁻⁶ cm/s; efflux ratio (Caco-2 cell monolayer): 4.22; Papp A-B (Caco-2 cell monolayer): 6.91 10^−6 cm/s; Papp B-A (Caco-2 cell monolayer): 29.18 10^−6 cm/s; inhibition at 1 µM (A375 melanoma): 94.2%; IC50 [5, 11]: 1.4 ± 0.1 nM |
| COC(=O)O[C@H]1C(=O)[C@]2(C)[C@@H](OC)C[C@H]3OC[C@@]3(OC(C)=O)[C@H]2[C@H](OC(=O)c2ccccc2)[C@]2(O)C[C@H](OC(=O)[C@H](O)[C@H](CC(C)C)NC(=O)OC(C)(C)C)C(C)=C1C2(C)C [PCMI-28] | 8.58 | 9.46 | 70.8 | 64.8 | 76.8 | 103 | 92.6 | 84 | 97.5 | 72.5 | 95.6 | 96.9 | 99.7 | 81.1 | 85.8 | 85.7 | 84.3 | 92.2 | 74.1 | 89.1 | Papp A→B [1, 6]: 9.02 ×10⁻⁶ cm/s; Papp A-B (Caco-2 cell monolayer): 8.87 10^−6 cm/s; Papp B-A (Caco-2 cell monolayer): 33.26 10^−6 cm/s; IC50 [5, 9]: 2.9 ± 0.06 nM |
| CO[C@H]1C(=O)[C@]2(C)[C@@H](OC(=O)N(C)C)C[C@H]3OC[C@@]3(OC(C)=O)[C@H]2[C@H](OC(=O)c2ccccc2)[C@]2(O)C[C@H](OC(=O)[C@H](O)[C@@H](NC(=O)N(C)C)c3ccccc3)C(C)=C1C2(C)C [PCMI-35] | 3.21 | 2.87 | 91.3 | 95 | 87.6 | 92.5 | 92.7 | 85.3 | 93.5 | 76.2 | 94.2 | 97.5 | 99.9 | 65.5 | 86.9 | 89.8 | 80.2 | 95.8 | 80.3 | 87.3 | Papp A→B [1, 6]: 3.04 ×10⁻⁶ cm/s; inhibition at 1 µM (A375 melanoma): 95.3%; IC50 [5, 11]: 4.28 ± 0.08 nM |
| COC(=O)O[C@H]1C[C@H]2OC[C@@]2(OC(C)=O)[C@H]2[C@H](OC(=O)c3ccccc3)[C@]3(O)C[C@H](OC(=O)[C@H](O)[C@@H](NC(=O)OC(C)(C)C)c4ccccc4)C(C)=C([C@@H](OC)C(=O)[C@]12C)C3(C)C [PCMI-36] | 6.66 | 7.29 | 88.5 | 95.5 | 81.4 | 107 | 94.5 | 83.8 | 95.9 | 78 | 96.9 | 97.8 | 102 | 67.2 | 90.3 | 88.3 | 77.5 | 94.6 | 81.8 | 89.7 | inhibition at 1 µM (A375 melanoma): 94%; IC50 [5, 9]: 4.97 ± 0.06 nM |
| CCSC(=O)O[C@H]1C[C@H]2OC[C@@]2(OC(C)=O)[C@H]2[C@H](OC(=O)c3ccccc3)[C@]3(O)C[C@H](OC(=O)[C@H](O)[C@@H](NC(=O)N(C)C)c4ccccc4)C(C)=C([C@@H](OC)C(=O)[C@]12C)C3(C)C [PCMI-40] | 3.78 | 4.05 | 74.5 | 78.2 | 70.7 | 94.7 | 92.7 | 87.2 | 93.9 | 80.2 | 94.2 | 96.9 | 99.6 | 67.3 | 87.3 | 90 | 83.6 | 93.3 | 83.7 | 87.2 | Papp B→A ([1]; Caco-2): 37.2 ×10⁻⁶ cm/s; efflux ratio ([1]; Caco-2): 5.36; Papp A→B [1, 10]: 6.92 ×10⁻⁶ cm/s; Papp A→B [1, 6]: 3.92 ×10⁻⁶ cm/s; inhibition at 1 µM (A375 melanoma): 95.2%; IC50 [5, 9]: 5.49 ± 0.14 nM |
| CO[C@H]1C(=O)[C@]2(C)CC[C@H]3OC[C@@]3(OC(C)=O)[C@H]2[C@H](OC(=O)c2ccccc2)[C@]2(O)C[C@H](OC(=O)[C@H](O)[C@@H](NC(=O)OC(C)(C)C)c3ccccc3)C(C)=C1C2(C)C [PCMI-41] | 4.27 | 5.79 | 101 | 97 | 105 | 95.5 | 94.3 | 82.5 | 94.6 | 77 | 95.8 | 97.7 | 101 | 65 | 85.7 | 87.6 | 80.1 | 93.1 | 81.1 | 88.3 | Papp A→B [1, 6]: 5.03 ×10⁻⁶ cm/s; inhibition at 1 µM (A375 melanoma): 91.6%; IC50 [5, 11]: 3.33 ± 0.11 nM |
